Source: patent US20040266766A1, “Selective urokinase inhibitors” (Wilex AG, priority 2001, published 2004)
Structures can show the parent of a compound that is named as a salt. Where two headings read alike, the source gives them in different places.

What was measured:
Thrombin = Thrombin (Homo sapiens, UniProt P00734); experiment: In vitro inhibition of thrombin (Ki according to Dixon); assay type: biochemical
Description: (§1) In order to determine the inhibitory activity, 200 μl Tris buffer (0.05 mol/l containing the inhibitor, 0.154 mol/l NaCl, pH 8.0), 25 μl substrate (Pefachrome uPA, Pefachrome PL or Pefabloc TH in H2O; Pentapharm Ltd, Basle, Switzerland) and 50 μl urokinase (Calbiochem-Novabiochem GmbH, Bad Soden, Germany) or another appropriate protease e.g. plasmin, thrombin or FXa are incubated for 10 minutes at 30° C. After ca. 30 minutes and 30 cycles the absorption is determined at 405 nm by means of a microplate reader (Mediators PHL, Aureon Biosystems, Vienna, Austria). The Ki values were determined according to Dixon by linear regression using a computer program.

PK = PK (Homo sapiens, UniProt P03952); experiment: In vitro inhibition of PK (Ki); assay type: biochemical; settings: summary table
Description: as §1

Caco-2 cell monolayers = experiment: Caco-assay: transport across Caco-2 cell monolayers; assay type: in vitro ADME, human; settings: for % amount in the basolateral compartment: 10 μg/ml apical, four hours
Description: Transport of the compounds WX-508, WXC-316, WXC-318, WXC-324, WXC-340, WX-532, WX-538, WX-550 and WX-582 across Caco-2 cell monolayers was investigated. In this experiment the bioavailability of the said compounds after oral administration was assessed.
Caco-2-cells (American Type Culture Collection, Rockville, Md., USA) were cultured in Dulbecco's modified Eagle medium (DMEM) (Life Technologies, Gibco BRL, UK) containing 10% vol/vol heat-denatured foetal calf serum (FCS), 1% vol/vol non-essential amino acids, 160 U/ml benzylpenicillin and 100 U/ml streptomycin (Sigma Chemical, St. Louis, Mo., USA). The cells are kept at 37° C. in an atmosphere comprising 95% air and 5% CO2 at 90% relative air humidity. The cells are cultured in […] culture flasks, the medium being replaced every second day and the cells are trypsinized once per week.
For the transport investigations the Caco-2 cells are cultured on porous polycarbonate filter membranes having a pore size of 0.4 μm and a surface of 4.7 cm^2 in clusters of 6 wells (Costar Transwell, Badhoevedorp, Netherlands). The cells are inoculated on each filter at an initial density of 10^4 cells/cm^2. These cells are kept at 37° C. in one of the atmospheres described above. The medium is replaced every second day for a period of three weeks.
On the day of the transport experiment the culture medium was replaced by the same volume of Hank's balanced saline solution (HBSS) buffered with 30 mM HEPES at pH 7.2 (transport medium) and the cells are allowed to equilibrate for 1 hour. Afterwards the apical medium is replaced by 1.5 ml of a solution containing one of the compounds in HBSS/HEPES (10 μg/ml). Cell monolayers are incubated for four hours. Samples of the apical and basolateral compartments are removed at the end of the experiments and used to quantitatively determine the transport of the respective compounds.
The transepithelial electric resistance (TEER) is measured before and after equilibration using a Milicell ERS meter which was connected to a pair of electrodes in order to ensure the integrity of the monolayers formed on the filters. TEER is also measured at the end of the experiments to ensure that the cell monolayer remains coherent.
Samples are taken from the apical and the basolateral side and analysed in a beta counter after adding a scintillation cocktail. All experiments were carried out three times.

urokinase (uPA) = biological target: T1, urokinase (uPA) (Homo sapiens, UniProt P00749); experiment: In vitro inhibition of urokinase (Ki according to Dixon, chromogenic substrate); assay type: biochemical
T1 construct: purchased Calbiochem-Novabiochem GmbH, Bad Soden, Germany
Description: as §1

FXa = FXa (Homo sapiens, UniProt P00742); experiment: In vitro inhibition of FXa (Ki according to Dixon); assay type: biochemical
Description: as §1

Plasmin = Plasmin (Homo sapiens, UniProt P00747); experiment: In vitro inhibition of plasmin (Ki according to Dixon); assay type: biochemical
Description: as §1

[1] = Oral bioavailability and plasma kinetics in mice (serum concentration); assay type: in vivo, Balb/c mice; settings: mouse; for concentration at 20 min / concentration at 40 min / concentration at 60 min: female, Balb/c, serum, po; for concentration at 20 min: sample at 20 minutes; for concentration at 40 min: sample at 40 minutes; for concentration at 60 min: sample at 60 minutes
[2] = list of test substances of Example 17, read-out: Ki human uPA
[3] = summary table, read-out: Ki uPA
[4] = 30 mg/kg, 30 mg/kg oral, read-out: c in the serum 1st analysis
[5] = 300 mg/kg, 300 mg/kg oral, read-out: c in the serum 1st analysis
[6] = 10 mg/kg i.v., time of sample collection 0
[7] = 10 mg/kg i.v., time of sample collection 10
[8] = 10 mg/kg i.v., time of sample collection 30
[9] = 7.5 mg/kg, 7.5 mg/kg oral, read-out: c in the serum 1st analysis
[10] = 75 mg/kg, 75 mg/kg oral, read-out: c in the serum 1st analysis
[11] = 300 mg/kg, 300 mg/kg oral, read-out: c in the serum 2nd analysis

FXa, sequence (P00742 235-488 limits assumed): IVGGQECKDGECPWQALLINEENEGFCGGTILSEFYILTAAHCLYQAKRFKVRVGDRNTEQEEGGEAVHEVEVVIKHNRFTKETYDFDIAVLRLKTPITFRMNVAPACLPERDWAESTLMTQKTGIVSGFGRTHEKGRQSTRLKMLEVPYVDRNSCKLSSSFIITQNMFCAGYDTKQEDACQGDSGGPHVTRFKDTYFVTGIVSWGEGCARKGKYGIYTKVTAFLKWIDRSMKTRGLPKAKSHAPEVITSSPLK
FXa, sequence (P00742 41-179 partner limits assumed): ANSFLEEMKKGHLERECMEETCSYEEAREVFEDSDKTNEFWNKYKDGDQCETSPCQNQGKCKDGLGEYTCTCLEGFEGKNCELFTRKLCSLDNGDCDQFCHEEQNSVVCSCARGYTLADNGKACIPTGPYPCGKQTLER
PK, sequence (P03952 20-638): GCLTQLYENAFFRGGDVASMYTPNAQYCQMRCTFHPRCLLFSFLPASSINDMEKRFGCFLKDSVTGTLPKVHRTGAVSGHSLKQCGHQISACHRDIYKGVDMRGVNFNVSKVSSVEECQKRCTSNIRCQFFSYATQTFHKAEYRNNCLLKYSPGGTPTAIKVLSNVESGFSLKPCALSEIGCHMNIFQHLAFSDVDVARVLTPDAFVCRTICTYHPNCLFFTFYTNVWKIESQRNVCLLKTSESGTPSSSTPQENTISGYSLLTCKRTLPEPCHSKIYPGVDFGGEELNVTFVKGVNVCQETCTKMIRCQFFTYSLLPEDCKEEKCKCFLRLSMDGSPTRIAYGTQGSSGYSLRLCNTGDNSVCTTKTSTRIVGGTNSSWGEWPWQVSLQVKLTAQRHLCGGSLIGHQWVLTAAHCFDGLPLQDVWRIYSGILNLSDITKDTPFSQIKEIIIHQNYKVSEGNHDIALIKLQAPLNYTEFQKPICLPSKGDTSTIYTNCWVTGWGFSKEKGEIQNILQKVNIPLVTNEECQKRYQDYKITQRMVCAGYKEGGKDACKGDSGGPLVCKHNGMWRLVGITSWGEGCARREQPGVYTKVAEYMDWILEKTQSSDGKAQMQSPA
Plasmin, sequence (P00747 581-810 limits assumed, species assumed): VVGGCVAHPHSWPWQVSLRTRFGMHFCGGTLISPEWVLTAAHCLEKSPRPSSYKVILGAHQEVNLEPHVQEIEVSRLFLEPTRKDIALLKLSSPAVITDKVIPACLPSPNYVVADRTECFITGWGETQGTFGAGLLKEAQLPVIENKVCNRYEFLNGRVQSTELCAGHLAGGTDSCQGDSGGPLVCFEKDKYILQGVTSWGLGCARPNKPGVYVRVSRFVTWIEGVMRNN
Plasmin, sequence (P00747 97-580 partner limits assumed, species assumed): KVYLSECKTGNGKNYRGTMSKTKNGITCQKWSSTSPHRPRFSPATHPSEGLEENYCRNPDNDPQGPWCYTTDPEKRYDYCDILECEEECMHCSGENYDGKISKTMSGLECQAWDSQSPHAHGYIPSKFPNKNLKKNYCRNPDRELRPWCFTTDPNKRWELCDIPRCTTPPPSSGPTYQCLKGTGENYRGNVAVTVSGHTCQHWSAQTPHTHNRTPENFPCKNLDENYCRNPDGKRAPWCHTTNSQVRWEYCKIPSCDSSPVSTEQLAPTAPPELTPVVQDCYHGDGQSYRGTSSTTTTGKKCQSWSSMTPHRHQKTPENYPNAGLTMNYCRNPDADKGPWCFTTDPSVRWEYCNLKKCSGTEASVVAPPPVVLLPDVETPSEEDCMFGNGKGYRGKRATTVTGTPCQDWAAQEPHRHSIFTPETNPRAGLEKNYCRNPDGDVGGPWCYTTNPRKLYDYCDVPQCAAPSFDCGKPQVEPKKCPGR

SMILES	Ki (Thrombin) [µM]	Ki (PK) [µM]	% amount in the basolateral compartment (Caco-2 cell monolayers; first value column) [%]	% amount in the basolateral compartment (Caco-2 cell monolayers; second value column) [%]	% amount in the basolateral compartment (Caco-2 cell monolayers; third value column) [%]	Caco-2 assay % basolateral (Caco-2 cell monolayers; first series, first value)	Caco-2 assay % basolateral (Caco-2 cell monolayers; first series, second value)	Caco-2 assay % basolateral (Caco-2 cell monolayers; first series, third value)	Caco-2 assay % basolateral (Caco-2 cell monolayers; second series, first value) [%]	Caco-2 assay % basolateral (Caco-2 cell monolayers; second series, second value) [%]	Caco-2 assay % basolateral (Caco-2 cell monolayers; second series, third value) [%]	Ki (urokinase (uPA); [2]) [µM]	Ki (urokinase (uPA); read-out: Ki uPA) [µM]	Ki (urokinase (uPA); [3]) [µM]	Ki (FXa) [µM]	Ki (Plasmin) [µM]	concentration at 20 min [1, 4] [ng/mL]	concentration at 40 min [1, 4] [ng/mL]	concentration at 60 min [1, 4] [ng/mL]	concentration at 20 min [1, 5] [ng/mL]	further results
CN(CC(=O)NCc1ccc(NC(=N)N)cc1)C(=O)C(CO)NS(=O)(=O)Cc1ccccc1 (stereo not shown) [WX-538, benzylsulfonyl-(D)-Ser-N-Me-Gly-(4-guanidinobenzyl)amide]	> 100	109	0.2	0.2	0.1	0.2%	0.2%	0.1%	0.1	0.1	0	0.041	0.041	0.041	> 100	130	100	50	200	2500	Ki (Thrombin; summary table): > 100 µM; Ki (FXa; summary table): > 100 µM; concentration at 40 min [1, 5]: 3500 ng/mL; concentration at 60 min [1, 5]: 2300 ng/mL; c in the serum 1st analysis [1, 6]: 45.8 µg/mL; c in the serum 1st analysis [1, 7]: 5.5 µg/mL; c in the serum 1st analysis [1, 8]: 0.6 µg/mL
C[C@@H](C(=O)NCc1ccc(NC(=N)N)cc1)N(C)C(=O)[C@@H](CO)NS(=O)(=O)Cc1ccc(Cl)cc1 [WX-582, 4-chlorobenzylsulfonyl-(D)-Ser-N-Me-Ala-(4-guanidinobenzyl)amide]	–	58	0.4	3.1	5.2	0%	3.1%	5.2%	0.4	2.9	3.0	0.01	0.01	–	–	–	–	–	–	–	concentration at 20 min [1, 9]: 0 ng/mL; concentration at 40 min [1, 9]: 0 ng/mL; concentration at 60 min [1, 9]: 0 ng/mL; concentration at 20 min [1, 10]: 1000 ng/mL; concentration at 40 min [1, 10]: 700 ng/mL; concentration at 60 min [1, 10]: 400 ng/mL; c in the serum 1st analysis ([1]; 2.5 mg/kg i.v., time of sample collection 0): 11.5 µg/mL; c in the serum 1st analysis ([1]; 2.5 mg/kg i.v., time of sample collection 10): 0.8 µg/mL; c in the serum 1st analysis ([1]; 2.5 mg/kg i.v., time of sample collection 30): 0.1 µg/mL
C[C@H](NC(=O)C(CO)NS(=O)(=O)Cc1ccccc1)C(=O)NCc1ccc(NC(=N)N)cc1 (stereo partly drawn) [WX-532, Benzylsulfonyl-(D)-Ser-Ala-(4-guanidinobenzyl)amide hydrochloride]	–	49	0	0	0	0/0/0%	0/0/0%	0/0/0%	–	–	–	0.016	0.016	0.016	–	40	1500	10900	900	5800	Ki Thrombin (Thrombin): no inh. at 100 μM *); Ki Thrombin (Thrombin; summary table): no inh. at 100 μM *); concentration at 20 min [1, 11]: 6700 ng/mL; concentration at 40 min [1, 5]: 2900 ng/mL; concentration at 40 min [1, 11]: 3300 ng/mL; concentration at 60 min [1, 5]: 12800 ng/mL; concentration at 60 min [1, 11]: 15000 ng/mL; c in the serum 1st analysis [1, 6]: 61.7 µg/mL; c in the serum 2nd analysis [1, 6]: 68.8 µg/mL; c in the serum 1st analysis [1, 7]: 3.8 µg/mL; c in the serum 2nd analysis [1, 7]: 3.5 µg/mL; c in the serum 1st analysis [1, 8]: 11.4 µg/mL; c in the serum 2nd analysis [1, 8]: 11.2 µg/mL
N=C(N)Nc1ccc(CNC(=O)CNC(=O)C(CO)NC(=O)Nc2cccc(C(=O)O)c2)cc1 (stereo not drawn) [WX-C324, 3-Carboxyphenyl-aminocarbonyl-(D)-Ser-Gly-(4-guanidinobenzyl)amide hydrochloride]	–	–	0.1	0.1	2.0	0.1%	0.1%	2.9%	0	0	3.0	–	3.1	–	–	–	–	–	–	–	–
N=C(N)Nc1ccc(CNC(=O)NNC(=O)[C@@H](CO)NS(=O)(=O)Cc2ccccc2)cc1 [WX-544, BzSO2-(D)-Ser-AzaGly-(4-guanidinobenzyl)amide]	–	–	–	–	–	–	–	–	–	–	–	–	0.83	–	–	–	–	–	–	–	Ki Thrombin (Thrombin): no inh. at 100 μM *)
N=C(N)Nc1ccc(S(=O)(=O)NCCNC(=O)C(CO)NS(=O)(=O)Cc2ccccc2)cc1 (stereo not shown) [WX-568, N-[2-(4-guanidino-benzenesulfonylamino)-ethyl]-3-hydroxy-2-phenylmethanesulfonylamino-propionamide hydrochloride]	> 1000	–	–	–	–	–	–	–	–	–	–	–	2.1	–	> 1000	–	–	–	–	–	–
